Results reported in ChEMBL document CHEMBL4811232 (J Med Chem, 2021).

How the values were obtained:
[1] = human, microsomes, 1 h, 10 µM
Description: Drug metabolism in human liver microsomes assessed as NADPH-dependent covalent bond binding assessed per mg protein at 10 umol/L incubated for 1 hr in presence of NADPH by liquid scintillation counter analysis

[2] = human, microsomes, 1 h, 50 µM
Description: Drug metabolism in human liver microsomes assessed as total covalent bond binding assessed per mg protein at 50 umol/L incubated for 1 hr in presence of NADPH by liquid scintillation counter analysis

[3] = human, microsomes, 1 h, 10 µM; remark: listed apart in the source
Description: Drug metabolism in human liver microsomes assessed as total covalent bond binding assessed per mg protein at 10 umol/L incubated for 1 hr in presence of NADPH by liquid scintillation counter analysis

[4] = human, microsomes, 1 h, 50 µM; remark: listed apart in the source
Description: Drug metabolism in human liver microsomes assessed as NADPH-dependent covalent bond binding at 50 umol/L incubated for 1 hr in presence of NADPH by liquid scintillation counter analysis

[5] = human, microsomes, 1 h, 50 µM; remark: listed apart in the source
Description: Drug metabolism in human liver microsomes assessed as NADPH-independent covalent bond binding assessed per mg protein at 50 umol/L incubated for 1 hr in presence of NADPH by liquid scintillation counter analysis

[6] = human, microsomes, 1 h, 10 µM; remark: listed apart in the source
Description: Drug metabolism in human liver microsomes assessed as NADPH-independent covalent bond binding assessed per mg protein at 10 umol/L incubated for 1 hr in presence of NADPH by liquid scintillation counter analysis

Beta-secretase 1 [7] = target: T1, Beta-secretase 1 (Homo sapiens, UniProt P56817)
in vitro [8] = conditions: human, pooled liver microsomes
Description: Metabolic stability in human pooled liver microsomes assessed as parent compound remaining at 0.1 uM measured after 30 mins in presence of NADPH by LC-MS/MS analysis

Beta-secretase 1 [9] = target: T1, Beta-secretase 1; remark: listed apart in the source
Description: Inhibition of BACE1 in human SH-SY5Y cells expressing wild type betaAPP assessed as reduction in amyloidbeta (1 to 40 residues) level incubated for 24 hrs by HTRF assay

Cytochrome P450 2D6 = Cytochrome P450 2D6 (Homo sapiens, UniProt P10635)
Description: Inhibition of CYP2D6 in human liver microsomes using dextromethorphan as substrate incubated for 15 mins in presence of NADPH by LC/MS/MS analysis

hERG (KCNH2) = hERG (KCNH2) (Homo sapiens, UniProt Q12809); test: in vitro; conditions: CHO cells expressing human ERG
Description: Inhibition of human ERG expressed in CHO cells at 5 uM maintained at -80 mV membrane potential by automated patch-clamp assay relative to control

in vitro [10] = conditions: Sprague-Dawley, rat, liver microsomes
Description: Metabolic stability in Sprague-Dawley rat liver microsomes assessed as parent compound remaining at 0.1 uM measured after 30 mins in presence of NADPH by LC-MS/MS analysis

MDR1 (ABCB1, P-gp) = MDR1 (ABCB1, P-gp) (Homo sapiens, UniProt P08183); test: in vitro; conditions: MDCK-MDR1
Description: Substrate activity at human MDR1 expressed in MDCK cells assessed as efflux ratio

in vitro [11] = conditions: dog, MDCK
Description: Apparent permeability in MDCK cells

Chain of MDR1 (ABCB1, P-gp) (P08183 whole entry): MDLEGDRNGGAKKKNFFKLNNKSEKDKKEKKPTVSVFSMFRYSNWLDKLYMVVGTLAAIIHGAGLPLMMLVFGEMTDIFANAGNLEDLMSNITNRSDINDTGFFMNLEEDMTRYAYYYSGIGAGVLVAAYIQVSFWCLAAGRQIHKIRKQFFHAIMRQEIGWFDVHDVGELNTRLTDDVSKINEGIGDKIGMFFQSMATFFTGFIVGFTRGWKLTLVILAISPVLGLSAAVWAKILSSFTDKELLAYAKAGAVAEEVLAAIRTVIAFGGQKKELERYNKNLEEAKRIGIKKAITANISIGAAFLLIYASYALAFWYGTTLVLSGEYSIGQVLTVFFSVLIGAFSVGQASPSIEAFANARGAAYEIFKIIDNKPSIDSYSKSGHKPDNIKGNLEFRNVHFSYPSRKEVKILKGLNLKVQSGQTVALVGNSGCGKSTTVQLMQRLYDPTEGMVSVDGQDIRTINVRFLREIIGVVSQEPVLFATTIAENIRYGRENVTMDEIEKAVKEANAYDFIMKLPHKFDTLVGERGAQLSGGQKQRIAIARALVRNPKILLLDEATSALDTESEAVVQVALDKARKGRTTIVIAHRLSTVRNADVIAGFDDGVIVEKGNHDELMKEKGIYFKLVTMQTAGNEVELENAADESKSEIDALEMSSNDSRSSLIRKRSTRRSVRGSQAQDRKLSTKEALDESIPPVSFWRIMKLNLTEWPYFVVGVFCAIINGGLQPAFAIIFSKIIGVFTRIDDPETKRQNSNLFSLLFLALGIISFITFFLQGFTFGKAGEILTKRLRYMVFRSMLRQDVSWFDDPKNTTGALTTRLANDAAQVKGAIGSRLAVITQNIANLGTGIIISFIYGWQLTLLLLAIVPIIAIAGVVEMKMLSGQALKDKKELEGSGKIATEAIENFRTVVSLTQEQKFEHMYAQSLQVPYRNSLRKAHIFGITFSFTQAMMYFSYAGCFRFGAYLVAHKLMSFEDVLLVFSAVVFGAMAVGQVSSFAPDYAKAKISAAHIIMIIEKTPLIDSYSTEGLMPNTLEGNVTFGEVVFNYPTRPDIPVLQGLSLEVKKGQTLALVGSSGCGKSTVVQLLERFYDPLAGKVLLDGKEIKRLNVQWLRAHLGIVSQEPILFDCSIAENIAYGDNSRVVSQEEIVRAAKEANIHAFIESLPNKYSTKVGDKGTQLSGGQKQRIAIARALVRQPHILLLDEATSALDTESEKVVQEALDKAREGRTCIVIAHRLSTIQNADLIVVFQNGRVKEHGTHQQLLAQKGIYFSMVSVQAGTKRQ
T1 sequence (P56817 whole entry): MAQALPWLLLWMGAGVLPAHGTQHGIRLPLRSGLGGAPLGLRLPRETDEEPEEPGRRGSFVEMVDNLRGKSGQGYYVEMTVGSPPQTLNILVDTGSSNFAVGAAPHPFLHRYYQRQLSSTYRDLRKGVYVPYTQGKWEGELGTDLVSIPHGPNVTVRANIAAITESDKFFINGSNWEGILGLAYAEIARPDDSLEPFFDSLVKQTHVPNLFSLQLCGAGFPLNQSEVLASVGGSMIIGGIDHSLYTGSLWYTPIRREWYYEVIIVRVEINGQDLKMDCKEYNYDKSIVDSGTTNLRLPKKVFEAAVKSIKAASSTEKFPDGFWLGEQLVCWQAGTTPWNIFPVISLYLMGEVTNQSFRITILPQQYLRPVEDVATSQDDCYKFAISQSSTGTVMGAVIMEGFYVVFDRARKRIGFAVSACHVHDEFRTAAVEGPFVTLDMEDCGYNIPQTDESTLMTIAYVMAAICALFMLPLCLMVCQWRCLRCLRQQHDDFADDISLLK
Chain of hERG (KCNH2) (Q12809 whole entry): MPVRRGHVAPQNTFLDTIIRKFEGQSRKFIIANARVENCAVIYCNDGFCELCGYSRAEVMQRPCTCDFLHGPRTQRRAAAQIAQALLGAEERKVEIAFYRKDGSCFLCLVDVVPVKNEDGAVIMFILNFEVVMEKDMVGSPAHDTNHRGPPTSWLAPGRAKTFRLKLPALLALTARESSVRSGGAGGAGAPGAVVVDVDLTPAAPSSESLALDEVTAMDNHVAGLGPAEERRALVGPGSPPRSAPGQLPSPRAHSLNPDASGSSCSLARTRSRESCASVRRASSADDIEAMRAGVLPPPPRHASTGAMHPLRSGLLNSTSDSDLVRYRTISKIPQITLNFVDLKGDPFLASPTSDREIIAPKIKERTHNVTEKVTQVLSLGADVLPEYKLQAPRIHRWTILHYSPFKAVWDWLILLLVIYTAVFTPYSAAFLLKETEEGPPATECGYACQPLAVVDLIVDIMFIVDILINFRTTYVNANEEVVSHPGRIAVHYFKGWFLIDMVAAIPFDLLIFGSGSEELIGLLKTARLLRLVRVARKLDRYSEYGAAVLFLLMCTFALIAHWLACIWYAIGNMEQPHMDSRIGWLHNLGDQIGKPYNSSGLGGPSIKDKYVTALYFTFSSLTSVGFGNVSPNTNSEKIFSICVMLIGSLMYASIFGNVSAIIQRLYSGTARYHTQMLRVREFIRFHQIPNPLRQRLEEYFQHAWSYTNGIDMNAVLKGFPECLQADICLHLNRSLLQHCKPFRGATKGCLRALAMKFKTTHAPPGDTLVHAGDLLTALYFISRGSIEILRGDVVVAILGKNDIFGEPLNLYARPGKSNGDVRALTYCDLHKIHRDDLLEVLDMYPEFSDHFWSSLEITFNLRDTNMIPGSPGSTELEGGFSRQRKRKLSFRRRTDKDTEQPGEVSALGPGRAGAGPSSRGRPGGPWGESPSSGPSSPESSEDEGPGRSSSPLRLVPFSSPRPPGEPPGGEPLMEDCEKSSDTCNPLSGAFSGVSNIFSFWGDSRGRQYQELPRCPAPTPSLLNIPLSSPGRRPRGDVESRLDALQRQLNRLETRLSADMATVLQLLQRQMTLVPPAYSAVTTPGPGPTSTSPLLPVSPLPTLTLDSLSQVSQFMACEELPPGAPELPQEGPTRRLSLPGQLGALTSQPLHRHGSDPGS
Chain of Cytochrome P450 2D6 (P10635 whole entry): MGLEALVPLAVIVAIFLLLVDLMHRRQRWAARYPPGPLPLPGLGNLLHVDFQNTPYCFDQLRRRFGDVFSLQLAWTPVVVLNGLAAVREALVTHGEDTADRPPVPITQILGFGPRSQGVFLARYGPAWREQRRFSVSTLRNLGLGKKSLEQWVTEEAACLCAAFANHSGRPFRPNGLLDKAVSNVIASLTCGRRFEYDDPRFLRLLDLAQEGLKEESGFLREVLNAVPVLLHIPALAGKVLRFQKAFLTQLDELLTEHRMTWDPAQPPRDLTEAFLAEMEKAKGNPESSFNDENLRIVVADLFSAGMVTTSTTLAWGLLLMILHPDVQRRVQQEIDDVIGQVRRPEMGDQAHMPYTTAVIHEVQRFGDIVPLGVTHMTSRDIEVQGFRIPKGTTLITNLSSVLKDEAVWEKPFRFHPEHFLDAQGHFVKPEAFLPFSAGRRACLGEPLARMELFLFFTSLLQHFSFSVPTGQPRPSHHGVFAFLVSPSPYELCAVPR
Description for physchem: Dissociation constant, pKa of the compound by capillary electrophoresis method

Question: Which Drug metabolism [1] does the source give for `CCc1ccc(CCOc2ccc(CC3SC(=O)NC3=O)cc2)nc1` (stereo not drawn) [PIOGLITAZONE] here?
Answer: Its Drug metabolism is 594 pmol.

Question: And the Drug metabolism [2]?
Answer: Its Drug metabolism is 3458 pmol.

Question: What about the Drug metabolism [3] of the same molecule?
Answer: Its Drug metabolism is 599 pmol.

Question: And the Drug metabolism [4]?
Answer: The Drug metabolism was 3446 pmol.

Question: And the Drug metabolism [5]?
Answer: Its Drug metabolism is 12 pmol.

Question: What about the Drug metabolism [6] of the same molecule?
Answer: Its Drug metabolism is 4 pmol.

Question: What does the source list for `C[C@@]1(c2cc(NC(=O)c3ccc(Cl)cn3)ccc2F)C=CSC(N)=N1`?
Answer: IC50 (Beta-secretase 1 [7]): 9.6 nM; remaining at 0.5 h, 0.1 µM (in vitro [8]): 78%; IC50 (Beta-secretase 1 [9]): 5.5 nM; IC50 (Cytochrome P450 2D6): < 1000 nM; inhibition at 5 µM (hERG (KCNH2)): 80%; remaining at 0.5 h, 0.1 µM (in vitro [10]): 76%

Question: For `C=C1C[C@@](C)(c2cc(NC(=O)c3ccc(C#N)cn3)ccc2F)N=C(N)S1`, which IC50 (Beta-secretase 1 [7]) is on record?
Answer: The IC50 was 9.1 nM.

Question: And the remaining at 0.5 h, 0.1 µM (in vitro [8])?
Answer: Its remaining at 0.5 h, 0.1 µM is 65%.

Question: What about the efflux ratio (MDR1 (ABCB1, P-gp)) of the same molecule?
Answer: Its efflux ratio is 5.3.

Question: What about the IC50 (Beta-secretase 1 [9]) of the same molecule?
Answer: The IC50 was 1.1 nM.

Question: And the Papp (in vitro [11])?
Answer: Its Papp is 38 ×10⁻⁶ cm/s.

Question: What about the pKa (physchem) of the same molecule?
Answer: The pKa was 7.8.

Question: What about the inhibition at 5 µM (hERG (KCNH2)) of the same molecule?
Answer: The inhibition at 5 µM was 78%.

Question: And the remaining at 0.5 h, 0.1 µM (in vitro [10])?
Answer: Its remaining at 0.5 h, 0.1 µM is 8%.

Question: Which IC50 (Beta-secretase 1 [7]) does the source give for `C[C@@]1(c2cc(C(=O)Nc3ccc(Cl)cn3)ccc2F)CCSC(N)=N1` here?
Answer: The IC50 was 6.7 nM.

Question: What about the IC50 (Beta-secretase 1 [9]) of the same molecule?
Answer: The IC50 was 0.84 nM.

Question: Which results are given for `C[C@@]1(c2cc(NC(=O)c3ncc(C#N)cc3Cl)ccc2F)C=CSC(N)=N1`?
Answer: IC50 (Beta-secretase 1 [7]): 20 nM; remaining at 0.5 h, 0.1 µM (in vitro [8]): 85%; efflux ratio (MDR1 (ABCB1, P-gp)): 20; IC50 (Beta-secretase 1 [9]): 1.6 nM; IC50 (Cytochrome P450 2D6): > 20000 nM; inhibition at 5 µM (hERG (KCNH2)): 48%; remaining at 0.5 h, 0.1 µM (in vitro [10]): 87%

Question: Which IC50 (Beta-secretase 1 [7]) does the source give for `N#Cc1ccc(C(=O)Nc2ccc(F)c([C@]3(CF)CCSC(N)=N3)c2)nc1` here?
Answer: The IC50 was 16 nM.

Question: And the remaining at 0.5 h, 0.1 µM (in vitro [8])?
Answer: Its remaining at 0.5 h, 0.1 µM is 86%.

Question: What about the efflux ratio (MDR1 (ABCB1, P-gp)) of the same molecule?
Answer: Its efflux ratio is 22.

Question: What about the IC50 (Beta-secretase 1 [9]) of the same molecule?
Answer: Its IC50 is 0.62 nM.

Question: What about the Papp (in vitro [11]) of the same molecule?
Answer: Its Papp is 22 ×10⁻⁶ cm/s.

Question: And the pKa (physchem)?
Answer: Its pKa is 7.6.

Question: What about the inhibition at 5 µM (hERG (KCNH2)) of the same molecule?
Answer: Its inhibition at 5 µM is 90%.

Question: And the remaining at 0.5 h, 0.1 µM (in vitro [10])?
Answer: The remaining at 0.5 h, 0.1 µM was 64%.

Question: Which results are given for `CC1(c2cccc(C(=O)Nc3ccc(Cl)cn3)c2)CCSC(N)=N1` (stereo not drawn)?
Answer: IC50 (Beta-secretase 1 [7]): 1450 nM; IC50 (Beta-secretase 1 [9]): 170 nM

Question: Which results are given for `C[C@@]1(c2cc(NC(=O)c3ccc(C#N)cn3)ccc2F)CCSC(N)=N1`?
Answer: remaining at 0.5 h, 0.1 µM (in vitro [8]): 104%; Papp (in vitro [11]): 12 ×10⁻⁶ cm/s; pKa (physchem): 9; inhibition at 5 µM (hERG (KCNH2)): 91%; remaining at 0.5 h, 0.1 µM (in vitro [10]): 66%

Question: Which IC50 (Beta-secretase 1 [7]) does the source give for `C[C@@]1(c2cc(NC(=O)c3ccc(F)cn3)ccc2F)C=CSC(N)=N1` here?
Answer: Its IC50 is 39 nM.

Question: And the remaining at 0.5 h, 0.1 µM (in vitro [8])?
Answer: Its remaining at 0.5 h, 0.1 µM is 97%.

Question: And the efflux ratio (MDR1 (ABCB1, P-gp))?
Answer: Its efflux ratio is 2.

Question: What about the IC50 (Beta-secretase 1 [9]) of the same molecule?
Answer: Its IC50 is 4.2 nM.

Question: And the IC50 (Cytochrome P450 2D6)?
Answer: Its IC50 is 11000 nM.

Question: What about the inhibition at 5 µM (hERG (KCNH2)) of the same molecule?
Answer: Its inhibition at 5 µM is 67%.

Question: What about the remaining at 0.5 h, 0.1 µM (in vitro [10]) of the same molecule?
Answer: The remaining at 0.5 h, 0.1 µM was 60%.

Question: With `COc1cnc(C(=O)Nc2ccc(F)c([C@]3(C)C=CSC(N)=N3)c2)cn1` as the molecule, how does the IC50 (Beta-secretase 1 [7]) read?
Answer: Its IC50 is 21 nM.

Question: And the remaining at 0.5 h, 0.1 µM (in vitro [8])?
Answer: Its remaining at 0.5 h, 0.1 µM is 27%.

Question: What about the efflux ratio (MDR1 (ABCB1, P-gp)) of the same molecule?
Answer: The efflux ratio was 1.4.

Question: What about the IC50 (Beta-secretase 1 [9]) of the same molecule?
Answer: The IC50 was 4.4 nM.

Question: What about the IC50 (Cytochrome P450 2D6) of the same molecule?
Answer: Its IC50 is under 1000 nM.

Question: And the inhibition at 5 µM (hERG (KCNH2))?
Answer: Its inhibition at 5 µM is 29%.

Question: What about the remaining at 0.5 h, 0.1 µM (in vitro [10]) of the same molecule?
Answer: Its remaining at 0.5 h, 0.1 µM is 88%.
